Several values for one entry are separate records, joined by “and”; a condition that tells them apart may be missing. Equal entries are not always repeated. Structures can show the parent of a compound that is named as a salt.
How the values were obtained:
GABA-A receptor = test: Radioligand binding at the GABA-A receptor; parameters: species or system rat; conditions: mean of two-three independent experiments; read-out: GABA-A Ki ± SEM
Protocol: The study was conducted in accordance with previously established protocols, and performed in duplicate. Rat brains were homogenized and prepared following the described methodologies. The assay was carried out directly on 96-well microplates containing 50 mM Tris-HCl buffer (pH 7.4) in a total volume of 300 μL. […] To determine nonspecific binding, 100 μM GABA was included in the mixture. The 96-well microplates were incubated at 0 °C for 10 min, followed by rapid filtration through FilterMate B glass fiber filters (PerkinElmer, USA) using a Harvester-96 MACH III FM (Tomtec, USA). The filters were gently dried in a microwave and sealed in plastic bags (PerkinElmer, USA). Each filter was then immersed in 10 mL of Ultima Gold MV liquid scintillation cocktail (PerkinElmer, USA). […] Ki values were calculated using the Cheng and Prusoff equation, and statistical analyses were conducted using GraphPad Prism (version 4.0, San Diego, CA, USA)

PAMPA permeability assay = format: in vitro ADME; conditions: PBS pH 7.4, 100 μM, zolpidem tested as tartrate; for Papp at 5 h, 100 μM: pH 7.4, PAMPA, read-out: Permeability Pe ± SD; for Permeability Pe ± SD: 5 h
Protocol: PAMPA. The precoated PAMPA Plate System Gentest, obtained from Corning (Tewksbury, MA, USA), was used for the permeability study. The system includes a 96-well receiver filter plate precoated with structured phospholipid layers and a matching donor microplate. Stock solutions of the test compounds and reference drugs were prepared in PBS buffer (pH 7.4) at a final concentration of 100 μM. Each compound solution (200 μL) was added to the donor wells and incubated at room temperature for 5 h. The quantity of molecules that penetrated from the donor wells to the acceptor wells through the phospholipid membrane was determined using UPLC-MS spectrometry (Waters ACQUITY TQD system with the TQ Detector, Waters, Milford, USA) with an internal standard. Permeability coefficients (Pe, cm/s) were calculated according to the formula provided by the manufacturer.

SH-SY5Y cells [1] = test: PrestoBlue cell viability assay; format: cell-based; conditions: Table S2, 24 h
Protocol: Cell viability was determined using the Presto Blue reagent (ThermoFisher) following the manufacturer’s instructions.
(§1) 1. Cytotoxicity studies for selected compounds
Table S1. The viability of the cells SH-SY5Y after treatment with tested compounds for 24 the results are expressed as a percentage of dead cells with luminescence ToxiLight Assay. The results are expressed as a per cent of control with whole […]
percentage of live cells with fluorescence PrestoBlue Assay. The results are expressed as a per cent of vehicle (DMSO).

SH-SY5Y cells [2] = test: Intracellular calcium concentration after 6-OHDA (Fluo-4); format: cell-based, human; conditions: 50 μM pretreatment 1 h, then 6-OHDA 250 μM 1 h
Protocol: 7 (A). Effect of 6-Hydroxydopamine (6-OHDA) on intracellular calcium concentration [Ca^2+] determined by Fluo-4 AM. After pretreatment with tested compounds (50 μM) or vehicle (0.5% DMSO, v/v) for 1 h, the cells were incubated with 6-Hydroxydopamine (6-OHDA, 250 μM) for 1 h. 6-OHDA control: cells treated with 250 μM of 6-OHDA. […]. DMSO control: cells treated with 0.5% DMSO only. Data are presented as the mean ± SD from 2–3 independent experiments. Experiments were carried on with ImageXpress Micro XLS (Molecular Devices). (B) The level of ROS generation was determined by Cell ROX dye. After pretreatment with tested compounds (50 μM) or vehicle (0.5% DMSO, v/v) for 1 h, the cells were incubated with hydrogen peroxide (H2O2, 300 μM) for 1 h. H2O2 control: cells treated with H2O2 (300 μM). DMSO control: cells treated with 0.5% DMSO only. Data are presented as the mean ± SD from 2–3 independent experiments. Experiments were carried on with the ImageXpress Micro XLS (Molecular Devices).
The SH-SY5Y human neuroblastoma cell line was maintained according to established protocols. The cells, obtained from the American Type Culture Collection (ATCC), were cultured in Dulbecco’s Modified Eagle’s Medium (DMEM, high glucose; Thermo Fisher), supplemented with 10% fetal bovine serum (Thermo Fisher), 100 IU/ml penicillin (Merck), and 100 μg/mL streptomycin (Merck). They were grown in 75 cm^2 flasks (Nunc) at 37 °C in a humidified atmosphere containing 5% CO2. For compound evaluation, SH-SY5Y cells were plated in 96-well plates (Falcon) at a density of 2 × 10^4 cells per well. The cells were allowed to adhere and grow for 24 h in an incubator set to 37 °C and 5% CO2 before starting the experiments. Stock solutions of both test and reference compounds were prepared at a concentration of 10^–2 M. A minimum of 1 mg of each compound was dissolved in dimethyl sulfoxide (DMSO). Serial dilutions were made in DMSO, then further diluted in PBS, mixed, and added to the cell culture medium.
The intracellular Ca^2+ levels were assessed using a homogeneous cell-based assay with the Fluo-4 Direct Calcium Assay Kit (Thermo Fisher). Following incubation with the tested compounds, the supernatant was discarded, and the cells were incubated with 1 μM Fluo-4/AM in FluoroBrite DMEM (Thermo Fisher) for 1 h at 37 °C. The results were expressed as a percentage relative to the control (DMSO). Fluorescence intensity was recorded using the ImageXpress Micro XLS system (Molecular Devices).

SH-SY5Y cells [3] = test: ToxiLight assay (cell membrane damage); format: cell-based; conditions: Table S1, 24 h
Protocol: Damage to the cell membrane was assessed using the bioluminescent ToxiLight bioassay (Lonza), a profound method for detecting cell toxicity. Following 24 h of treatment, 5 μL of the supernatant above the sediment was transferred to a 384-well plate (PerkinElmer). Subsequently, 20 μL of Adenylate Kinase Detection Reagent (AKDR) was added to each well. Luminescence was recorded after a 10 min incubation period using a POLARstar Omega plate reader (BMG Labtech). Results are presented as a percentage relative to the control sample (cells lysed), reflecting the proportion of dead cells compared to the control.
as §1
Table S1. The viability of the cells SH-SY5Y after treatment with tested compounds for 24 the results are expressed as a percentage of dead cells with luminescence ToxiLight Assay. The results are expressed as a per cent of control with whole lysis cells. N.C. not countable […]
Table S2. The viability of the cells SH-SY5Y after treatment with tested compounds for 24 h the results are expressed as a percentage of live cells with fluorescence PrestoBlue Assay. The results are expressed as a per cent of vehicle (DMSO). […]

α1β2γ2 GABA-A receptor = biological target: T1, α1β2γ2 GABA-A receptor (Homo sapiens, UniProt P14867+P18507); test: Electrophysiological studies (QPatch16X automated patch-clamp), PAM efficacy; format: cell-based
T1 construct: expressed in transfected cells
T1 sequence (P14867 28-456): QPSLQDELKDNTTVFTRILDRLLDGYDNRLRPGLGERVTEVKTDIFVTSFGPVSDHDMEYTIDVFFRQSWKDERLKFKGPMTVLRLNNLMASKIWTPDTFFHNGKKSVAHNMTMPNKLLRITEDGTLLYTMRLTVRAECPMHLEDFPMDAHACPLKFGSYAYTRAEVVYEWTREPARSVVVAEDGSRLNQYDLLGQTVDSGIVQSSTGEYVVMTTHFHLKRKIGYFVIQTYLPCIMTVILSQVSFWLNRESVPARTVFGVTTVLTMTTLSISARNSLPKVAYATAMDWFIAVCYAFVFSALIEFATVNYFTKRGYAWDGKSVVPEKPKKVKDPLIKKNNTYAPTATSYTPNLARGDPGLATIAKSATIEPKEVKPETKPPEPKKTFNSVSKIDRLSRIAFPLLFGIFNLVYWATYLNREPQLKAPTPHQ
T1 sequence (P47870 25-512 partner limits assumed): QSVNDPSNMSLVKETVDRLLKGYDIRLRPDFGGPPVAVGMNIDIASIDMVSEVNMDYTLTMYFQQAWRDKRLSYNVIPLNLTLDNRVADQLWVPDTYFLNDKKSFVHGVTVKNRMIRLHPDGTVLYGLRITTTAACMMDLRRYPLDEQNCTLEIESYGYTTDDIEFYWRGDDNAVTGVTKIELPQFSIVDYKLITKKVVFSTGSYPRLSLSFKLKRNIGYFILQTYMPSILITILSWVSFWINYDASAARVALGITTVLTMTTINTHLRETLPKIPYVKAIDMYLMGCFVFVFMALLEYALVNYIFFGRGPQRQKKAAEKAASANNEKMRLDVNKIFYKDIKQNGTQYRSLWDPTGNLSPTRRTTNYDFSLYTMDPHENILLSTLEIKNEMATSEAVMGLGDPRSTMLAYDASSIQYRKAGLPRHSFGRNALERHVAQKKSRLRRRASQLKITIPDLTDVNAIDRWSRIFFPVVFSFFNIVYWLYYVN
T1 sequence (P18507 40-475): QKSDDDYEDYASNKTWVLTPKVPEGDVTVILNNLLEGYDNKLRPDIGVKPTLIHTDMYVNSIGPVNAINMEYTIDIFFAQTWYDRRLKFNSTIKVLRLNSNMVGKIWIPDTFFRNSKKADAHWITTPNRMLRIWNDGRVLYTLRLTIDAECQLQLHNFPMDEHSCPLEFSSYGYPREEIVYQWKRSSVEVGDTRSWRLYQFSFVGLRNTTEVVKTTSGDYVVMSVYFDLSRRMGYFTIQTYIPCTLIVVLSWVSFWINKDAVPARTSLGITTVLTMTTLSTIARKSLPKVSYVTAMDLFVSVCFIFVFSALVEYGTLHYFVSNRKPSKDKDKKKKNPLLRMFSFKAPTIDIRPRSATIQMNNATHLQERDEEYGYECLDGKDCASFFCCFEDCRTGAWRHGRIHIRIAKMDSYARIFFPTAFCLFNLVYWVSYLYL

## Cc1ccc2nc(-c3ccc(F)cc3)c(CC(=O)N3CCN(C)CC3)n2c1 [Compound 4, 2-[2-(4-Fluorophenyl)-6-methylimidazo[1,2-a]pyridin-3-yl]-1-(4-methylpiperazin-1-yl)ethan-1-one formate salt]
GABA-A receptor
  Ki: 278 ± 43 nM

## Cc1ccc2nc(-c3ccc(F)cc3)c(CC(=O)N3CCNCC3)n2c1 [Compound 5, 2-[2-(4-Fluorophenyl)-6-methylimidazo[1,2-a]pyridin-3-yl]-1-(piperazin-1-yl)ethan-1-one]
PAMPA permeability assay
  Papp at 5 h, 100 μM: 3.35 ± 0.4 ×10⁻⁶ cm/s

## Cc1ccc2nc(-c3ccc(F)cc3)c(CC(=O)N3CCC(C)CC3)n2c1 [Compound 7, 2-[2-(4-Fluorophenyl)-6-methylimidazo[1,2-a]pyridin-3-yl]-1-(4-methylpiperidin-1-yl)ethan-1-one]
GABA-A receptor
  Ki: 204 ± 20.6 nM

## Cc1ccc2nc(-c3ccc(F)cc3)c(CC(=O)N3CCN(C(C)C)CC3)n2c1 [Compound 8, 2-[2-(4-Fluorophenyl)-6-methylimidazo[1,2-a]pyridin-3-yl]-1-[4-(propan-2-yl)piperazin-1-yl]ethan-1-one]
GABA-A receptor
  Ki: 5230 ± 510 nM

## Cc1ccc2nc(-c3ccc(F)cc3)c(CC(=O)N3CCN(C4CC4)CC3)n2c1 [Compound 9, 1-(4-Cyclopropylpiperazin-1-yl)-2-[2-(4-fluorophenyl)-6-methylimidazo[1,2-a]pyridin-3-yl]ethan-1-one]
GABA-A receptor
  Ki: 1340 ± 46 nM

## Cc1ccc2nc(-c3ccc(F)cc3)c(CC(=O)N3CCN(CC(C)C)CC3)n2c1 [Compound 10, 2-[2-(4-Fluorophenyl)-6-methylimidazo[1,2-a]pyridin-3-yl]-1-[4-(2-methylpropyl)piperazin-1-yl]ethan-1-one]
GABA-A receptor
  Ki: 3330 ± 374 nM

## Cc1ccc2nc(-c3ccc(F)cc3)c(CC(=O)N3CCN(C(C)(C)C)CC3)n2c1 [Compound 11, 1-(4-tert-Butylpiperazin-1-yl)-2-[2-(4-fluorophenyl)-6-methylimidazo[1,2-a]pyridin-3-yl]ethan-1-one]
GABA-A receptor
  Ki: 7820 ± 1720 nM

## Cc1ccc2nc(-c3ccc(F)cc3)c(CC(=O)N3CC4CCCCC4C3)n2c1 (stereo not shown) [Compound 12, 2-[2-(4-Fluorophenyl)-6-methylimidazo[1,2-a]pyridin-3-yl]-1-(octahydro-1H-isoindol-2-yl)ethan-1-one]
GABA-A receptor
  Ki: 517 ± 61.2 nM

## Cc1ccc2nc(-c3ccc(F)cc3)c(CC(=O)N3CCCCCC3)n2c1 [Compound 13, 1-(Azepan-1-yl)-2-(2-(4-fluorophenyl)-6-methylimidazo[1,2-a]pyridin-3-yl)ethan-1-one]
GABA-A receptor
  Ki: 453 ± 59.3 nM

## Cc1ccc2nc(-c3ccc(F)cc3)c(CC(=O)N3CCSC3(C)C)n2c1 [Compound 14, 1-(2,2-Dimethyl-1,3-thiazolidin-3-yl)-2-[2-(4-fluorophenyl)-6-methylimidazo[1,2-a]pyridin-3-yl]ethan-1-one]
GABA-A receptor
  Ki: 551 nM and 552 nM

## Cc1ccc2nc(-c3ccc(F)cc3)c(CC(=O)N3CCSC3)n2c1 [Compound 15, 2-[2-(4-Fluorophenyl)-6-methylimidazo[1,2-a]pyridin-3-yl]-1-(1,3-thiazolidin-3-yl)ethan-1-one]
SH-SY5Y cells [1]; 1E-04 M
  X [%], percentage of live cells, PrestoBlue Assay (per cent of vehicle DMSO): 14%
SH-SY5Y cells [1]; 1E-05 M
  X [%], percentage of live cells, PrestoBlue Assay (per cent of vehicle DMSO): 12%
SH-SY5Y cells [1]; 1E-06 M
  X [%], percentage of live cells, PrestoBlue Assay (per cent of vehicle DMSO): 16%
SH-SY5Y cells [1]; 1E-07 M
  X [%], percentage of live cells, PrestoBlue Assay (per cent of vehicle DMSO): 14%
SH-SY5Y cells [1]; 1E-08 M
  X [%], percentage of live cells, PrestoBlue Assay (per cent of vehicle DMSO): 15%
SH-SY5Y cells [1]; 1E-09 M
  X [%], percentage of live cells, PrestoBlue Assay (per cent of vehicle DMSO): 14%
SH-SY5Y cells [1]; 3E-05 M
  X [%], percentage of live cells, PrestoBlue Assay (per cent of vehicle DMSO): 15%
SH-SY5Y cells [1]; 3E-06 M
  X [%], percentage of live cells, PrestoBlue Assay (per cent of vehicle DMSO): 15%
PAMPA permeability assay
  Permeability Pe ± SD: 7.89 ± 1.35 ·10^–6 cm/s
  Papp at 5 h, 100 μM: > 4 ×10⁻⁶ cm/s
SH-SY5Y cells [2]
  Reduction of intracellular calcium levels: ≤ 50%
SH-SY5Y cells [3]; 1E-04 M
  X [%], percentage of dead cells, ToxiLight Assay (per cent of control with whole lysis cells): 67%
SH-SY5Y cells [3]; 1E-05 M
  X [%], percentage of dead cells, ToxiLight Assay (per cent of control with whole lysis cells): 108%
SH-SY5Y cells [3]; 1E-06 M
  X [%], percentage of dead cells, ToxiLight Assay (per cent of control with whole lysis cells): 110%
SH-SY5Y cells [3]; 1E-07 M
  X [%], percentage of dead cells, ToxiLight Assay (per cent of control with whole lysis cells): 107%
SH-SY5Y cells [3]; 1E-08 M
  X [%], percentage of dead cells, ToxiLight Assay (per cent of control with whole lysis cells): 108%
SH-SY5Y cells [3]; 1E-09 M
  X [%], percentage of dead cells, ToxiLight Assay (per cent of control with whole lysis cells): 101%
SH-SY5Y cells [3]; 3E-05 M
  X [%], percentage of dead cells, ToxiLight Assay (per cent of control with whole lysis cells): 96%
SH-SY5Y cells [3]; 3E-06 M
  X [%], percentage of dead cells, ToxiLight Assay (per cent of control with whole lysis cells): 105%
α1β2γ2 GABA-A receptor
  EC50: 743 ± 136 nM

## Cc1ccc2nc(-c3ccc(F)cc3)c(CC(=O)NC3CCNC3)n2c1 (stereo not shown) [Compound 16, 2-[2-(4-Fluorophenyl)-6-methylimidazo[1,2-a]pyridin-3-yl]-N-(pyrrolidin-3-yl)acetamide]
PAMPA permeability assay
  Papp at 5 h, 100 μM: 0.154 ± 0.005 ×10⁻⁶ cm/s
GABA-A receptor
  Ki: < 200 nM and 140 nM

## CN1C(=O)CN=C(c2ccccc2)c2cc(Cl)ccc21 [diazepam, reference compound]
GABA-A receptor
  Ki: 5.6 ± 0.7 nM

## CCN1CCCC1CNC(=O)c1cc(S(N)(=O)=O)ccc1OC (stereo not shown) [sulpiride, reference compound]
PAMPA permeability assay
  Permeability Pe ± SD: 0.016 ± 0.003 ·10^–6 cm/s

— publication PMC12186843, “Targeting GABAergic Hypofunction Associated with Schizophrenia: Identification of α1β2γ2GABA‑A Receptor Ligands with Neuroprotective and Antipsychotic Properties” (ACS Chemical Neuroscience, 2025)
